Test results taken from article PMC5454865 (International Journal of Molecular Sciences, 2017).
Several values for one entry are separate records, joined by “and”; a condition that tells them apart may be missing. Identical values can stand only once. Like-named read-outs stand apart in the source and are kept apart here. Blank lines part the entries; values can stand above or below the compound they belong to.

Experiments:
CYP3A4 [1] = biological target: T1, CYP3A4 (Homo sapiens, UniProt P08684); details: human liver microsomes; cited from earlier work
CYP2C9 [2] = biological target: T2, CYP2C9 (Homo sapiens, UniProt P11712); parameters: incubated with human liver microsomes (0.1 mg/mL); tissue Corning Life Sciences 452161; host or cells: pooled human liver microsomes; details: cited from earlier work
CYP2C8 [3] = biological target: T3, CYP2C8 (Homo sapiens, UniProt P10632)
T3 sequence (P10632 1-490): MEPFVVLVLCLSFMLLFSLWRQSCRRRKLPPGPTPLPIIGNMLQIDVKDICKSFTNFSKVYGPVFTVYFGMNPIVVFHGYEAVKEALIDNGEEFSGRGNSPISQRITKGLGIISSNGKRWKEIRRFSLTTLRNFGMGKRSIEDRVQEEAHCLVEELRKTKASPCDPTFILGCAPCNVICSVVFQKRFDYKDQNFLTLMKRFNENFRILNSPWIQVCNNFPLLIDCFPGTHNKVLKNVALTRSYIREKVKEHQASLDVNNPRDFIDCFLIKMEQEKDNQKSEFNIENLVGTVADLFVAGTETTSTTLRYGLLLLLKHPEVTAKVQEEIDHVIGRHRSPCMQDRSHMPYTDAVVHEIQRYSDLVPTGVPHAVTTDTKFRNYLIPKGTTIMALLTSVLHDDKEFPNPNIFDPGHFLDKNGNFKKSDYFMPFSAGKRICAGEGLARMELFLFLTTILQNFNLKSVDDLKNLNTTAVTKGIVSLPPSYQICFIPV
Experimental: (§1) After 3 min pre-incubation at 37 °C, the reaction mixtures were incubated for 15 min at 37 °C with the addition of NADPH in a shaking water bath. The reaction was stopped by adding 100 μL of ice-cold methanol containing internal standards (d9-1′-hydroxybufuralol for 1′-hydroxybufuralol, 4′-hydroxydiclofenac, 7-hydroxycoumarin, 1′-hydroxymidazolam, and 4′-hydroxymephenytoin; ^13C2, ^15N-acetaminophen for acetaminophen and N-desethylamodiaquine). The mixtures were centrifuged at 13,000× g for 4 min at 4 °C. All assays were performed in triplicate and the average values were used for the subsequent calculations. […] Then, the reaction mixtures were incubated with addition of the seven-CYP probe substrate cocktail for 15 min at 37 °C. The control reaction was performed by adding acetonitrile instead of the test compounds.
(§2) Seven metabolites were simultaneously determined using a tandem mass spectrometer (TSQ Quantum Access; Thermo Scientific, San Jose, CA, USA) equipped with an electrospray ionization (ESI) source coupled to a NANOSPACE SI-2 LC system (Shiseido, Tokyo, Japan). The column and autosampler temperatures were 50 and 6 °C, respectively. The ESI source settings for the ionization of metabolites were as follows: polarity, positive ion mode; capillary voltage, 4200 V; capillary temperature, 330 °C; vaporizer temperature, 350 °C; auxiliary gas pressure, 15 psi; and sheath gas pressure, 35 psi. […] Analytical data were processed using Xcalibur™ software (Thermo Scientific, San Jose, CA, USA).
(§3) The IC50 values were calculated using SigmaPlot ver. 11.0 (Systat Software, Inc., San Jose, CA, USA).

CYP1A2 [4] = biological target: T4, CYP1A2 (Homo sapiens, UniProt P05177); details: microsomes
T4 sequence (P05177 1-516): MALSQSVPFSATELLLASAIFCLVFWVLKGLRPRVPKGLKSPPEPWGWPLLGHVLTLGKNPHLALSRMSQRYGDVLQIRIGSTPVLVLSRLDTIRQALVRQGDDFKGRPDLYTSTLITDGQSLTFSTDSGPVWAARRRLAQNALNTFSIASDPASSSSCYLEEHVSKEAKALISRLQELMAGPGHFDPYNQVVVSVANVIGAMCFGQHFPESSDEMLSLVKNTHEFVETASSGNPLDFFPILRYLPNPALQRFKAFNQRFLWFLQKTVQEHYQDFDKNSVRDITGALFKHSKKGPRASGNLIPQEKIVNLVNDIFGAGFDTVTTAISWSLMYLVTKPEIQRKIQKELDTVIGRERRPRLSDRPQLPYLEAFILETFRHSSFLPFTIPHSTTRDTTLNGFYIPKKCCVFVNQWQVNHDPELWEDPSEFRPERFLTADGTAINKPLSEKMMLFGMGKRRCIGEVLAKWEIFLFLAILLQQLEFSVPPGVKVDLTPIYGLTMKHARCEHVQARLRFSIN
Experimental: as §1, §2, §3

CYP2C9 [5] = biological target: T2, CYP2C9; details: microsomes
Experimental: as §1, §2, §3

CYP3A4 [6] = biological target: T1, CYP3A4; details: microsomes
Experimental: as §1, §2
(§4) The IC50 values were calculated using SigmaPlot ver. 11.0 (Systat Software, Inc., San Jose, CA, USA). Ki, kinact, and the inhibition mode were determined using Enzyme Kinetics ver. 1.1 (Systat Software, Inc.).

CYP2C19 [7] = biological target: T5, CYP2C19 (Homo sapiens, UniProt P33261)
Experimental: as §1, §2, §3

CYP2A6 = biological target: T6, CYP2A6 (Homo sapiens, UniProt P11509); assay: CYP2A6-catalyzed coumarin 7-hydroxylation, substrate cocktail, LC-MS/MS; details: human liver microsomes
T6 sequence (P11509 1-494): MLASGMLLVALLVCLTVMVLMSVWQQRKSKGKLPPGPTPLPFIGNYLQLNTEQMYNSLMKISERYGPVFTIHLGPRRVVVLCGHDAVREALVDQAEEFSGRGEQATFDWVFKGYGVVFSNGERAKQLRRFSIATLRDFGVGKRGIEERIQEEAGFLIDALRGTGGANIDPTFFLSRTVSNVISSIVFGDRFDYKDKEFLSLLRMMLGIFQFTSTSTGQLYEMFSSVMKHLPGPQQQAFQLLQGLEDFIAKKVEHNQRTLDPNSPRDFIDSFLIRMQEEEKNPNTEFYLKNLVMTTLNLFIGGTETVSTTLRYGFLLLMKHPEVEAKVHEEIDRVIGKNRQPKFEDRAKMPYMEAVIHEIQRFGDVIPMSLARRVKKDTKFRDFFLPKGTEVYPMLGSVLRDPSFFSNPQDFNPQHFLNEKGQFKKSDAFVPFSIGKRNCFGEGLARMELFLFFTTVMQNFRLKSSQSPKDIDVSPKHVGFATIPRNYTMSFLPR
Experimental: as §1, §2, §3

CYP2D6 [8] = biological target: T7, CYP2D6 (Homo sapiens, UniProt P10635); details: microsomes
Experimental: as §1, §2, §4

CYP2B6 = biological target: T8, CYP2B6 (Homo sapiens, UniProt P20813); assay: CYP2B6-catalyzed bupropion hydroxylation, LC-MS/MS; assay type: in vitro ADME; details: human liver microsomes
T8 construct: pooled human liver microsomes (0.2 mg/mL), 50 μM bupropion; tissue Corning Life Sciences 452161; host or cells: pooled human liver microsomes
T8 sequence (P20813 1-491): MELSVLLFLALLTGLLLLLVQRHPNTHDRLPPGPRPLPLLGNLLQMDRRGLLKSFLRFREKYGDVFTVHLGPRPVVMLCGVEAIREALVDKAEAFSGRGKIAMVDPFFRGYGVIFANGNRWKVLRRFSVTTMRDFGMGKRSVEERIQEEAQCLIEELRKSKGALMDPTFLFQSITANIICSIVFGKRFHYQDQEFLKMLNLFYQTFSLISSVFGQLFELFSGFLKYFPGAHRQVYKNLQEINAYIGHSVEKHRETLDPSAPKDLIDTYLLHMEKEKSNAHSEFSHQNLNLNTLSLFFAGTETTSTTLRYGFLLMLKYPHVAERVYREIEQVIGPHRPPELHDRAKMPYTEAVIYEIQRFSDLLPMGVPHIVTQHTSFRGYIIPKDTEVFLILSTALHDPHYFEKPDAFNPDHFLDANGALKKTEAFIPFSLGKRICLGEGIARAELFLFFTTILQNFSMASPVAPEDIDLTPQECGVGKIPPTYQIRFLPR
Experimental: After 3 min pre-incubation at 37 °C, the reaction mixtures were incubated with the addition of NADPH in a shaking water bath for 15 min at 37 °C. The reaction was stopped by adding 100 μL of ice-cold d9-1′-hydroxybufuralol (internal standard) in methanol. The mixtures were centrifuged at 13,000× g for 4 min at 4 °C. All incubations were performed in triplicate, and the average values were used for the subsequent calculations. […] Then, the reaction mixtures were incubated with the addition of NADPH and bupropion for 15 min at 37 °C. The control reaction was performed by the addition of acetonitrile instead of the test compounds. Hydroxybupropion concentrations were quantified using the LC-MS/MS method described above; the SRM transitions for hydroxybupropion and d9-1′-hydroxybufuralol were 256.1 > 238.0 and 287.2 > 187.0, respectively.
The IC50 values were calculated using SigmaPlot ver.

[9] = test system: eight CYP enzymes (CYPs 1A2, 2A6, 2B6, 2C8, 2C9, 2C19, 2D6, and 3A4); assay: IC50 shift after 30-min pre-incubation with NADPH, panel of eight CYP enzymes; details: human liver microsomes
Experimental: as §1
After 3 min pre-incubation at 37 °C, the reaction mixtures were incubated with the addition of NADPH in a shaking water bath for 15 min at 37 °C. The reaction was stopped by adding 100 μL of ice-cold d9-1′-hydroxybufuralol (internal standard) in methanol. The mixtures were centrifuged at 13,000× g for 4 min at 4 °C. All incubations were performed in triplicate, and the average values were used for the subsequent calculations. […] Then, the reaction mixtures were incubated with the addition of NADPH and bupropion for 15 min at 37 °C. […]

CYP3A4 [10] = biological target: T1, CYP3A4; assay: CYP3A4-catalyzed midazolam 1′-hydroxylation, substrate cocktail, LC-MS/MS; details: human liver microsomes
Experimental: as §1, §2, §4

CYP2C9 [11] = biological target: T2, CYP2C9; assay: CYP2C9-catalyzed diclofenac 4′-hydroxylation, substrate cocktail, LC-MS/MS; details: human liver microsomes
Experimental: as §1, §2, §3

CYP2C19 [12] = biological target: T5, CYP2C19; assay: CYP2C19-catalyzed [S]-mephenytoin 4′-hydroxylation, substrate cocktail, LC-MS/MS; details: human liver microsomes
Experimental: as §1, §2, §3

CYP2C8 [13] = biological target: T3, CYP2C8; assay: CYP2C8-catalyzed amodiaquine N-deethylation, substrate cocktail, LC-MS/MS; details: human liver microsomes
Experimental: as §1, §2, §3

CYP2D6 [14] = biological target: T7, CYP2D6; assay: CYP2D6-catalyzed bufuralol 1′-hydroxylation, substrate cocktail, LC-MS/MS; details: human liver microsomes
Experimental: as §1, §2, §4

CYP1A2 [15] = biological target: T4, CYP1A2; assay: CYP1A2-catalyzed phenacetin O-deethylation, substrate cocktail, LC-MS/MS; details: human liver microsomes
Experimental: as §1, §2, §3

CYP2C19 [16] = biological target: T5, CYP2C19; details: microsomes
Experimental: as §1, §2, §3

T2 sequence (P11712 whole entry): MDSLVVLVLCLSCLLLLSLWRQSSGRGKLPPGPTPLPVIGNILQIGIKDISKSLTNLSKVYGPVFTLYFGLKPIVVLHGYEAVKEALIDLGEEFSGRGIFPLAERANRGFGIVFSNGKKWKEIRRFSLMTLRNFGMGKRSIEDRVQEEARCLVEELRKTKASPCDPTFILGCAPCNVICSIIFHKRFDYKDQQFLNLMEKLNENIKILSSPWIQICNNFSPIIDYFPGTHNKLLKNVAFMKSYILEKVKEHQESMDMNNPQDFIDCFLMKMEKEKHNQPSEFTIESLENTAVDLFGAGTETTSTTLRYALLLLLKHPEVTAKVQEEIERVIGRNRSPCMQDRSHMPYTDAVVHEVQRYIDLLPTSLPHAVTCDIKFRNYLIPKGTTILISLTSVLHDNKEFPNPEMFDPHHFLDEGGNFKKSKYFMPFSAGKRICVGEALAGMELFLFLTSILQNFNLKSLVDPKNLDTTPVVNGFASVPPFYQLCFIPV
T7 sequence (P10635 whole entry): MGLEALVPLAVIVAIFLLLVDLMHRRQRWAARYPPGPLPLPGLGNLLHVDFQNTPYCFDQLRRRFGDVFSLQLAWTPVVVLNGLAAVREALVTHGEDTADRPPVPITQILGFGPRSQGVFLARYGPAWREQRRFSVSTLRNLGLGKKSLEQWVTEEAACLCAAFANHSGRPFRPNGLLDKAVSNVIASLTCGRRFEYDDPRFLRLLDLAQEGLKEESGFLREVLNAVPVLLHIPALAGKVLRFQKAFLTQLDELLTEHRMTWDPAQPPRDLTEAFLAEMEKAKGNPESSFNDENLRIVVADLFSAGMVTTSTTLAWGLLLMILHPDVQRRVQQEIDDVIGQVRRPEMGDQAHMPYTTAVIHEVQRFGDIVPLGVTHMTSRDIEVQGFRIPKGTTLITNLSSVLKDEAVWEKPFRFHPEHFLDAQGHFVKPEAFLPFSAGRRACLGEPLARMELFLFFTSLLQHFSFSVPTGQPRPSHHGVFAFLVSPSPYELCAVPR
T1 sequence (P08684 whole entry): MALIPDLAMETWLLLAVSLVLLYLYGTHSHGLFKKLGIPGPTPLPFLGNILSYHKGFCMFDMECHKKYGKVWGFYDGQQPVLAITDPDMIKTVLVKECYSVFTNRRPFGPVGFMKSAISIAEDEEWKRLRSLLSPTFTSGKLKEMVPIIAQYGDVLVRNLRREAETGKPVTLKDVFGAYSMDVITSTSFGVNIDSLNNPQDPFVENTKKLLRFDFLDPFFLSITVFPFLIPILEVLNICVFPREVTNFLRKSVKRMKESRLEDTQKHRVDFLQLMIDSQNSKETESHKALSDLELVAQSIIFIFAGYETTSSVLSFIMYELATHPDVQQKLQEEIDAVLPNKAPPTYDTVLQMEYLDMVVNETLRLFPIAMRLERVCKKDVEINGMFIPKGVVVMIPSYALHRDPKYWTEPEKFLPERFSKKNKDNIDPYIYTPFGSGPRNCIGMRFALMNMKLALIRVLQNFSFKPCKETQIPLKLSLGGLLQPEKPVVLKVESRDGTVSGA
T5 sequence (P33261 whole entry): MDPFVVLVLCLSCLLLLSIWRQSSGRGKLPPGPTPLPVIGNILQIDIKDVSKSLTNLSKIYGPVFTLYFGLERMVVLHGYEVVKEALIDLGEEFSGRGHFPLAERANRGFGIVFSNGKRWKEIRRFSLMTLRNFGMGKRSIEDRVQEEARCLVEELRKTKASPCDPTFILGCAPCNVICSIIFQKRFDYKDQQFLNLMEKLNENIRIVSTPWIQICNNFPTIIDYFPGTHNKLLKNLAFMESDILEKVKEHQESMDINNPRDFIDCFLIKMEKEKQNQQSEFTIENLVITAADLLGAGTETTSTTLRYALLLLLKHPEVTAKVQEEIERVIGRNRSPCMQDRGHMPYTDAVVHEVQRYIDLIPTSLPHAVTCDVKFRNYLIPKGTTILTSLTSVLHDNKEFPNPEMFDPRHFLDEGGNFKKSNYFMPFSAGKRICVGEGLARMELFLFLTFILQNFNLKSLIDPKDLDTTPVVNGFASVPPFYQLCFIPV

Compound: COc1cc([C@H]2OC[C@H]3[C@@H]2CO[C@@H]3c2ccc3c(c2)OCO3)cc(OC)c1OC [aschantin]
kinact/Ki against CYP3A4 (CYP3A4 [1]): 8.2e+07 M⁻¹ s⁻¹ | kinact, mechanism-based inhibition of CYP2C9 (CYP2C9 [2]): 0.044 min⁻¹ | Ki (CYP2C9 [2]; read-out: Ki, mechanism-based inhibition of CYP2C9): 3.7 µM

Compound: CC(C)=CCC/C(C)=C/COc1c2ccoc2cc2oc(=O)ccc12 [bergamottin]
kinact/Ki against CYP3A4 (CYP3A4 [1]): 3.3e+07 M⁻¹ s⁻¹

Compound: CC[C@H]1OC(=O)[C@H](C)[C@@H](O[C@H]2C[C@@](C)(OC)[C@@H](O)[C@H](C)O2)[C@H](C)[C@@H](O[C@@H]2O[C@H](C)C[C@H](N(C)C)[C@H]2O)[C@](C)(OC)C[C@@H](C)C(=O)[C@H](C)[C@@H](O)[C@]1(C)O [clarithromycin]
kinact/Ki against CYP3A4 (CYP3A4 [1]): 1.7e+07 to 2.17e+08 M⁻¹ s⁻¹

Compound: COc1cc([C@@H]2c3cc4c(cc3C[C@H]3COC(=O)[C@@H]32)OCO4)cc(OC)c1OC [deoxypodophyllotoxin]
Ki (CYP2C9 [2]; read-out: Ki, CYP2C9 activity): 3.5 µM

IC50 (CYP2C8 [3]): 85 µM and 67.2 µM | Inhibition of CYP1A2 activity at 100 μM (CYP1A2 [4]): without inhibition | Inhibition of CYP2C9 activity at 100 μM (CYP2C9 [5]): without inhibition | Inhibition of CYP3A4 activity at 100 μM (CYP3A4 [6]): without inhibition | IC50 (CYP2C19 [7]): 55.1 µM and 49.8 µM | Inhibition of CYP2A6 activity at 100 μM (CYP2A6): without inhibition | Inhibition of CYP2D6 activity at 100 μM (CYP2D6 [8]): without inhibition | Inhibition of CYP2B6 activity at 100 μM (CYP2B6): without inhibition | IC50 value shift of eight CYP enzymes after 30-min pre-incubation [9]: did not cause the IC50 value shift
Compound: COc1cc([C@H]2OC[C@H]3[C@@H]2CO[C@@H]3c2cc(OC)c(OC)c(OC)c2)cc(OC)c1OC [dimethyllirioresinol]

Inhibition of CYP3A4 activity at 100 μM (CYP3A4 [10]): negligibly inhibited | Inhibition of CYP2C9 activity at 100 μM (CYP2C9 [11]): negligibly inhibited | Inhibition of CYP2C19 activity at 100 μM (CYP2C19 [12]): negligibly inhibited | Inhibition of CYP2C8 activity at 100 μM (CYP2C8 [13]): negligibly inhibited | Inhibition of CYP2D6 activity at 100 μM (CYP2D6 [14]): negligibly inhibited | Inhibition of CYP1A2 activity at 100 μM (CYP1A2 [15]): negligibly inhibited | Inhibition of CYP2A6 activity at 100 μM (CYP2A6): negligibly inhibited | Inhibition of CYP2B6 activity at 100 μM (CYP2B6): negligibly inhibited
Compound: COc1ccc([C@@H]2OC[C@H]3[C@@H]2CO[C@@H]3c2cc(OC)c(OC)c(OC)c2)cc1OC [epimagnolin A]

Inhibition of CYP1A2 activity at 100 μM (CYP1A2 [4]): negligibly inhibited | Inhibition of CYP2C9 activity at 100 μM (CYP2C9 [5]): negligibly inhibited | Inhibition of CYP2C8 activity at 100 μM (CYP2C8 [13]): negligibly inhibited | Inhibition of CYP3A4 activity at 100 μM (CYP3A4 [6]): negligibly inhibited | Inhibition of CYP2C19 activity at 100 μM (CYP2C19 [16]): negligibly inhibited | Inhibition of CYP2A6 activity at 100 μM (CYP2A6): negligibly inhibited | Inhibition of CYP2D6 activity at 100 μM (CYP2D6 [8]): negligibly inhibited | Inhibition of CYP2B6 activity at 100 μM (CYP2B6): negligibly inhibited | IC50 value shift of eight CYP enzymes after 30-min pre-incubation [9]: did not cause the IC50 value shift
Compound: COc1ccc([C@H]2OC[C@H]3[C@@H]2CO[C@@H]3c2ccc(OC)c(OC)c2)cc1OC [eudesmin]

Compound: CNCCC(Oc1ccc(C(F)(F)F)cc1)c1ccccc1 (centres unmarked) [fluoxetine]
kinact/Ki against CYP3A4 (CYP3A4 [1]): 5.33e+07 M⁻¹ s⁻¹

Inhibition of CYP3A4 activity at 100 μM (CYP3A4 [10]): negligibly inhibited | Inhibition of CYP2C9 activity at 100 μM (CYP2C9 [11]): negligibly inhibited | Inhibition of CYP2C19 activity at 100 μM (CYP2C19 [12]): negligibly inhibited | Inhibition of CYP2C8 activity at 100 μM (CYP2C8 [13]): negligibly inhibited | Inhibition of CYP2D6 activity at 100 μM (CYP2D6 [14]): negligibly inhibited | Inhibition of CYP1A2 activity at 100 μM (CYP1A2 [15]): negligibly inhibited | Inhibition of CYP2A6 activity at 100 μM (CYP2A6): negligibly inhibited | Inhibition of CYP2B6 activity at 100 μM (CYP2B6): negligibly inhibited
Compound: COc1ccc([C@H]2OC[C@H]3[C@@H]2CO[C@@H]3c2cc(OC)c(OC)c(OC)c2)cc1OC [magnolin]

Compound: COc1cc([C@@H]2c3cc4c(cc3[C@H](O)[C@H]3COC(=O)[C@H]23)OCO4)cc(OC)c1OC [podophyllotoxin]
kinact/Ki against CYP3A4 (CYP3A4 [1]): 2.272e+08 M⁻¹ s⁻¹ | Ki (CYP2C9 [2]; read-out: Ki, CYP2C9 activity): 2 µM

Compound: O=c1c2ccccc2nc2n1CCc1c-2[nH]c2ccccc12 [rutaecarpine]
kinact/Ki against CYP3A4 (CYP3A4 [1]): 5.98e+07 M⁻¹ s⁻¹
